{"source": "paper PMC10136147", "about": "“Bacillus subtilis YtpP and Thioredoxin A Are New Players in the Coenzyme-A-Mediated Defense Mechanism against Cellular Stress” (Antioxidants, 2023)", "key": {"MsrA": {"biological_target": "T1, MsrA (Corynebacterium diphtheriae, UniProt Q6NEL2)", "T1 construct": "26 kDa", "T1 sequence (Q6NEL2 1-220)": "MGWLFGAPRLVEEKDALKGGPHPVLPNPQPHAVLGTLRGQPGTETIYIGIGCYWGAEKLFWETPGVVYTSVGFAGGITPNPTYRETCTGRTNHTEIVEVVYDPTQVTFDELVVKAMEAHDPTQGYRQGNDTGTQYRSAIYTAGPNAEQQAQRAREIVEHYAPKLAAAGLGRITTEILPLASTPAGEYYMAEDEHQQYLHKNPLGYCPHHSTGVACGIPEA", "experiment": "anti-CoA Western blot after in vitro CoAlation", "format": "binding", "conditions": "covalent mixed disulfide with cysteine; protein:CoA:H2O2 1:3:10, RT, 30 min; monomer and oligomer bands"}, "YtpP [1]": {"biological_target": "T2, YtpP (Bacillus subtilis, UniProt O34357)", "T2 sequence (O34357 1-107)": "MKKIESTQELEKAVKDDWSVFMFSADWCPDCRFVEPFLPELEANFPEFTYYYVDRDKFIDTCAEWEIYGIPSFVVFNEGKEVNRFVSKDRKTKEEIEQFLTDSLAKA", "experiment": "HPLC ([…] nm) of released CoA; anti-CoA Western blot", "format": "biochemical", "conditions": "CoA released from 6 uM CoA-MsrA or CoA-PRDX5 by 60 uM enzyme, 1 h, 37 C"}, "GAPDH": {"biological_target": "T3, GAPDH (Staphylococcus aureus, UniProt Q6GIL8)", "T3 construct": "gene gapA1", "T3 sequence (Q6GIL8 1-336)": "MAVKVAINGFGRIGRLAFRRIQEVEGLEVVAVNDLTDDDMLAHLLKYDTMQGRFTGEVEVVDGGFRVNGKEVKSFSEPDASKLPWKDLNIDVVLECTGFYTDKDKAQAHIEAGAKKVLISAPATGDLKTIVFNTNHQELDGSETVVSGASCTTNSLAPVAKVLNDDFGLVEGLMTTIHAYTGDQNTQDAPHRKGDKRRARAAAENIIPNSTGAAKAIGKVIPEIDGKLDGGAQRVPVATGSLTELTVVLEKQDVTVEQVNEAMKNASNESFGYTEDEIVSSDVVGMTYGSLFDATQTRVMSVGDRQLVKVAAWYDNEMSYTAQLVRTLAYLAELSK", "experiment": "anti-CoA ELISA and Western blot after in vitro CoAlation", "format": "binding", "conditions": "covalent mixed disulfide with cysteine; protein:CoA:H2O2 1:3:10, RT, 30 min; reversed by 10 mM DTT"}, "PRDX5": {"biological_target": "T4, PRDX5 (Homo sapiens, UniProt P30044)", "T4 sequence (P30044 54-214)": "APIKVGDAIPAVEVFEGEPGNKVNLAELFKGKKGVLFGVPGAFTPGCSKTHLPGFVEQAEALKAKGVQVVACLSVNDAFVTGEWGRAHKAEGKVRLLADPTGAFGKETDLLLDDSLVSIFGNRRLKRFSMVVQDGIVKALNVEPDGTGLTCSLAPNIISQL", "experiment": "anti-CoA Western blot after in vitro CoAlation", "format": "binding", "conditions": "covalent mixed disulfide with cysteine; protein:CoA:H2O2 1:3:10, RT, 30 min; monomer and oligomer bands"}, "YtpP [2]": {"biological_target": "YtpP (Bacillus subtilis, UniProt O34357, C28S)", "sequence (O34357 whole entry C28S)": "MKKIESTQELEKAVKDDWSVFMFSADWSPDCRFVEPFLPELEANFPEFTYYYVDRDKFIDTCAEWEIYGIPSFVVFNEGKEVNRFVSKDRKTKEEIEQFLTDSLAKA", "experiment": "anti-CoA Western blot after incubation with CoAlated protein", "format": "binding", "conditions": "covalent; CoA transferred from the CoAlated protein, 30 min, 37 C"}, "TrxA": {"biological_target": "T5, TrxA (Bacillus subtilis, UniProt P14949)", "T5 construct": "about 11 kDa, N-terminal 6xHis tag (pET28a), E. coli BLR(DE3)", "T5 sequence (P14949 1-104)": "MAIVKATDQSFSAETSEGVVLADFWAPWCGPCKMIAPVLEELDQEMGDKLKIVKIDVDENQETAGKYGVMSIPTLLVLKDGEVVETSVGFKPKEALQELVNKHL", "experiment": "HPLC ([…] nm) of released CoA; anti-CoA Western blot", "format": "biochemical", "conditions": "CoA released from 6 uM CoA-MsrA or CoA-PRDX5 by 60 uM enzyme, 1 h, 37 C"}}}
{"smiles": "CC(C)(COP(=O)(O)OP(=O)(O)OC[C@H]1O[C@@H](n2cnc3c(N)ncnc32)[C@H](O)[C@@H]1OP(=O)(O)O)[C@@H](O)C(=O)NCCC(=O)NCCS", "note": "[CoA]", "values": [{"measurement": "anti-CoA Western blot after in vitro CoAlation", "setting": "MsrA", "result": "anti-CoA WB was used to confirm the CoAlation of both proteins"}, {"measurement": "HPLC (254 nm) of released CoA; anti-CoA Western blot", "setting": "YtpP [1]", "result": "Following deCoAlation of both substrates by YtpP and TrxA, CoA release was monitored."}, {"measurement": "anti-CoA ELISA and Western blot after in vitro CoAlation", "setting": "GAPDH", "result": "high signal was recorded due to the detection of CoA on the CoAlated protein"}, {"measurement": "anti-CoA Western blot after in vitro CoAlation", "setting": "PRDX5", "result": "anti-CoA WB was used to confirm the CoAlation of both proteins"}, {"measurement": "anti-CoA Western blot after incubation with CoAlated protein", "setting": "YtpP [2]", "result": "“Δ” represents either CoAlated YtpP C28S or YtpP C31S, or CoAlated TrxA C29S"}, {"measurement": "HPLC (254 nm) of released CoA; anti-CoA Western blot", "setting": "TrxA", "result": "Following deCoAlation of both substrates by YtpP and TrxA, CoA release was monitored."}]}
